In PMC11737842, “Development of a high‐throughput dual‐stream liquid chromatography–tandem mass spectrometry method to screen for inhibitors of glutamate carboxypeptidase II” (Rapid Communications in Mass Spectrometry, 2024):
pIC50: −log10 of the molar value. Residues, ends and D or L forms follow the SMILES beside them.

Legend:
[1] = molecular target: T1, Glutamate carboxypeptidase II (GCPII) (Homo sapiens, UniProt Q04609); test: LC/MS/MS enzymatic assay of Glu released from NAAG by purchased GCPII, 11-point IC50; format: biochemical
T1 construct: gene FOLH1

[2] = molecular target: T1, Glutamate carboxypeptidase II (GCPII); test: LC/MS/MS measurement of Glu from GCPII cleavage of ([…]5 […]-labelled) NAAG; format: biochemical

T1 sequence (Q04609 whole entry): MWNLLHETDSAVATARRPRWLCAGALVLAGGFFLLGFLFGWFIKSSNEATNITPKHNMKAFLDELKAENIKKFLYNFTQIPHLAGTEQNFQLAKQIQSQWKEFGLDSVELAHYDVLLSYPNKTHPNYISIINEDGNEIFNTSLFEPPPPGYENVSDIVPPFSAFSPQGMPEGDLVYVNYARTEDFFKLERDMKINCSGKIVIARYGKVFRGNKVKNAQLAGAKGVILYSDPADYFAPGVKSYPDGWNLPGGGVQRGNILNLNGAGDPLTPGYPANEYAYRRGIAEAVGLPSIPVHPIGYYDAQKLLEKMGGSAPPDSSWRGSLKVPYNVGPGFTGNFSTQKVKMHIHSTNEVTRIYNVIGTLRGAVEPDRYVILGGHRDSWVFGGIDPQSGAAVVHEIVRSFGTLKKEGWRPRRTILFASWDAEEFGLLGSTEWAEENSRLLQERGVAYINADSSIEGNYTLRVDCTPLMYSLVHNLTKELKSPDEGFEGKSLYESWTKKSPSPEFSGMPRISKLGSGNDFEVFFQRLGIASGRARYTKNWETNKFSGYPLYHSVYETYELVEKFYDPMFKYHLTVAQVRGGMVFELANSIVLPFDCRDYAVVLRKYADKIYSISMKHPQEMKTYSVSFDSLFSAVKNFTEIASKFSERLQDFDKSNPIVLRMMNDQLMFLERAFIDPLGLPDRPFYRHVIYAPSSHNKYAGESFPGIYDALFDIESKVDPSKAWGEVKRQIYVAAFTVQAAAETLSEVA

Compound	pIC50 [1]	LC/MS/MS measurement of Glu from GCPII cleavage of (13C5 15N-labelled) NAAG [2]
N[C@@H](Cn1oc(=O)[nH]c1=O)C(=O)O [quisqualic acid]	5.80	
CC(=O)N[C@@H](CC(=O)O)C(=O)N[C@@H](CCC(=O)O)C(=O)O [NAAG] (Ac-Asp-Glu-OH)		LC/MS/MS) method to directly measure Glu resulting from in vitro GCPII cleavage of NAAG
